The values that follow come from patent US20090318491A1 (priority 2006, published 2009).

Test [1] deals with T1, α3β4* nAChR (Bos taurus, UniProt Q07263+Q8SPU6).
T1 construct: 100 μL of the calf adrenal membrane protein fraction (60-70 μg); from tissue; host or cells: calf adrenals, membrane fraction
The test can be described thus: biochemical. The class given is binding, calf.
Description: Preparation of Calf Adrenals
Frozen calf adrenals (−80° C.) were placed on ice for 30-60 min and allowed to thaw slowly before they were cut into small pieces. After determination of the wet weight (4-6 g), the tissue was homogenised in HSS-buffer (Ultraturrax at 750 rpm). The homogenate was centrifuged (30,000×g, 10 min, 4° C.), the pellets collected and washed. This procedure was repeated five times. The buffer volume used to re-suspend the pellets was calculated on the basis of the wet weight in a ratio 1:6.5.
The prepared tissues were stored in aliquots at −80° C. One hour before the experiments the tissues were slowly thawed, homogenised in HSS-buffer and centrifuged (25,000×g, 20 min, 4° C.). The pellets were re-suspended in fresh HSS-buffer and used for radioligand binding assays.
Competition Assay Using (±)-[^3H]Epibatidine ([^3H]Epi) and Calf Adrenals Membrane Fraction (α3β4*nAChR)
Each assay sample, with a total volume of 500 μL contained 200 μL of the test compound, 100 μL of (±)-[^3H]epibatidine, 100 μL of the calf adrenal membrane protein fraction (60-70 μg) and 100 μM of HSS-buffer. Non-specific binding was determined in the presence of 300 μM (−)-nicotine tartrate salt. The samples were homogenised and incubated for 90 min at 22° C. The incubation was terminated by vacuum filtration through glass fibre filters presoaked in 1% poly(ethyleneimine). The filters were rinsed three times with TRIS-buffer, punched out and transferred into 4 mL scintillation vials. The scintillation vials were filled with scintillation cocktail (2 mL) and the radioactivity was measured using a liquid scintillation counter.

The target of test [2] is T2, (α1)2β1γδ nAChR (Tetronarce californica, UniProt P02710+P02714+P02718).
T2 construct: 100 μL of the Torpedo californica electroplax fraction (60-70 μg); from tissue; host or cells: Torpedo californica electric organ (electroplax) membranes
T2 sequence (P02710 25-461): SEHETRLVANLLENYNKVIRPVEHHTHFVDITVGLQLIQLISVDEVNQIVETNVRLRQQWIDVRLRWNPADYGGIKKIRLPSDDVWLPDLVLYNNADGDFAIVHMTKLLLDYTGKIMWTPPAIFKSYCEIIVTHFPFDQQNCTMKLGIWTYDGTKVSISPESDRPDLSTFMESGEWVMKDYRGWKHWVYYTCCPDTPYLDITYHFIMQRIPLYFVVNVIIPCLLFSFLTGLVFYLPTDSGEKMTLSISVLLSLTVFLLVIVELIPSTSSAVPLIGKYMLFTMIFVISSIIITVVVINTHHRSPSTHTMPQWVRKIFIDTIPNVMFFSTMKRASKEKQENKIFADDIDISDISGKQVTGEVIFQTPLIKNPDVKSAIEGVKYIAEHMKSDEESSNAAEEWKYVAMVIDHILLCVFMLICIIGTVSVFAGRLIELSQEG
T2 sequence (P02712 25-493, further chain): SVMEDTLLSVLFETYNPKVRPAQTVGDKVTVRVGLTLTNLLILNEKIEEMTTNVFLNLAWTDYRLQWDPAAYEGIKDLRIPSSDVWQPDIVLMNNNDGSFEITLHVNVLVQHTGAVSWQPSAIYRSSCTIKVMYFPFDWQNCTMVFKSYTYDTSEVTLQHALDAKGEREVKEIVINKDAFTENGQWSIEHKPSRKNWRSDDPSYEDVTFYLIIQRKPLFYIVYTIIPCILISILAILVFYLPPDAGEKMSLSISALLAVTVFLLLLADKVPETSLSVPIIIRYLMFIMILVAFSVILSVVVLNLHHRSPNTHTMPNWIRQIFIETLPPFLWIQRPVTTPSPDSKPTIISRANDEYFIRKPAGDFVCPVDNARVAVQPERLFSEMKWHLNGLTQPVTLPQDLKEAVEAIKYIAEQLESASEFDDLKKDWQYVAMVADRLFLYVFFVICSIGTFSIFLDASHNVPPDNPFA
T2 sequence (P02718 22-522): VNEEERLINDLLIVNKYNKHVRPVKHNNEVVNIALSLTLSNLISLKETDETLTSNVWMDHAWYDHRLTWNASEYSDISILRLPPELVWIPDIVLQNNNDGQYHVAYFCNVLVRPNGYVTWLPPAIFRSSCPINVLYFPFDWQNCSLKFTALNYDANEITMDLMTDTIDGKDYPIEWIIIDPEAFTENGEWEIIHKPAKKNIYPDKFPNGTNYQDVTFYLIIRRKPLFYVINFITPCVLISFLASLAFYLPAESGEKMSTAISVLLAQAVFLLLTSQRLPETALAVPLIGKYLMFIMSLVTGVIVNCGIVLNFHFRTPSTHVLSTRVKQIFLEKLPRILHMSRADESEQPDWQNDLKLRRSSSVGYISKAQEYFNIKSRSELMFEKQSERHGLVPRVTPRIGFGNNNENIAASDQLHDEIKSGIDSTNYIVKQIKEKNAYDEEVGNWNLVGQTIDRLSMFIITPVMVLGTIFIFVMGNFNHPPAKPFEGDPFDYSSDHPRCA
T2 sequence (P02714 18-506): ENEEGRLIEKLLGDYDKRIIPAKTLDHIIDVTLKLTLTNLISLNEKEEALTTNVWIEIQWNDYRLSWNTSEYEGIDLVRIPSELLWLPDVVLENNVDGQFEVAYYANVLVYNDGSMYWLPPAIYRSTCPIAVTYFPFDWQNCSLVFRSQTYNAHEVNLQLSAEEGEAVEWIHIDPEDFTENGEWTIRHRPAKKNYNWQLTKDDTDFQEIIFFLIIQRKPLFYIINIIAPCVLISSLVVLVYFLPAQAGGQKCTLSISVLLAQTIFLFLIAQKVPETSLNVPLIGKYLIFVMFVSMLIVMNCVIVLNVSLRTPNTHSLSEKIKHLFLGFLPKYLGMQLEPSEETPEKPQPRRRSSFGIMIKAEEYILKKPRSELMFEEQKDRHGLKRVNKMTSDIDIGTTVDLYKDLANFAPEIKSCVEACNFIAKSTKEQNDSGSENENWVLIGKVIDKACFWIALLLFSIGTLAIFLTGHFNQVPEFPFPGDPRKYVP
The test can be described thus: biochemical. Type of test: binding, Torpedo californica. How it is done: Preparation of Torpedo californica Electroplax
Frozen samples of Torpedo californica electric organ (−80° C.) were placed on ice for 30-60 min and allowed to thaw slowly before the membrane preparation. The tissue was homogenised in an ice-cold HSS-buffer (Ultraturrax at 750 rpm) and centrifuged (30,000×g, 10 min, 4° C.). The pellets were collected, washed four times with HSS-buffer through re-homogenization and centrifugation at the same settings. The remaining pellets were collected, re-suspended in HSS and stored in aliquots at −80° C.
One hour before the experiments the tissues were slowly thawed, homogenised in HSS-buffer and centrifuged (25,000×g, 20 min, 4° C.). The pellets were re-suspended in fresh HSS-buffer and used for radioligand binding assays.
Competition Assay Using (±)-[^3H]Epibatidine ([^3H]Epi) and Torpedo californica Electroplax ((α1)2β1γδ nAChR)
(§1) A dilution row of 6-9 concentrations of the test compound was prepared. Each assay sample, with a total volume of 500 μL contained 200 μL of the test compound, 100 μL of (±)-[^3H]epibatidine and 100 μL of the Torpedo californica electroplax fraction (60-70 μg). Non-specific binding was determined in the presence of 300 μM (−)-nicotine tartrate salt. The samples were homogenised and incubated for 90 min at 22° C. The incubation was terminated by vacuum filtration through glass fibre filters pre-soaked in 1% poly(ethyleneimine). The filters were rinsed three times with TRIS-buffer, punched out and transferred into 4 mL scintillation vials. The scintillation vials were filled with scintillation cocktail (2 mL) and the radioactivity was measured using a liquid scintillation counter.
Assays were carried out in duplicates, triplicate or quadruplicates.
(§2) Biological evaluation of the compounds on various nicotinic actylcholine receptors (nAChRs) was conducted with cells described below. […] Functional agonist activity of the cytisines in cells using a fluorescence assay sensitive to changes in cytosolic calcium.

Test [3] addresses T3, α4β2* nAChR (Rattus norvegicus, UniProt P09483+P12390).
T3 construct: Frozen rat brains were thawed slowly before the preparation of the P2 rat brain membrane fraction; from tissue; host or cells: rat brain (without cerebellum and medulla), P2 membrane fraction
The test can be described thus: biochemical. The class given is binding. How it is done:
(§3) Preparation of Rat Brains
(§4) Frozen rat brains were thawed slowly before the preparation of the P2 rat brain membrane fraction (30-60 min on ice, afterwards at room temperature). […] After the determination of the wet weight (1.32 g on average), the brains were pressed into a pulp using a syringe and homogenised in saccharose buffer with a glass teflon homogenizator (Potter, 10 seconds). The tissue was then centrifuged (1,000×g, 20 min, 4° C.), the supernatant (S1) aspirated with a Pasteur pipette and stored on ice. The P1 pellet was re-suspended in saccharose buffer and the centrifugation was repeated. The supernatant S1′ was collected and added to the supernatant S1. The combined supernatants were centrifuged (25,000×g, 20 min, 4° C.), the supernatant S2 was removed and the pellet P2 collected and diluted with HSS-buffer. The buffer volume added was calculated on the basis of the wet weight in a ratio 1:2.
(§5) The final pellet was stored in aliquots at −80° C. On the day of the experiment, the P2 membrane fraction was thawed, diluted with HSS-buffer (30-fold volume), homogenised and centrifuged (35,000×g, 10 min, 4° C.). The collected pellet was suspended in HSS-buffer and used in the radioligand binding experiments.
Competition Assay Using (±)-[^3H]Epibatidine ([^3H]Epi) and Rat Brain P2-Fraction (α4β2*nAChR)
as §1, with “contained 100 μL of the membrane protein (60 μg), 100 μL of (±)-[^3H]epibatidine (0.5 nM), 100 μL of HSS-buffer and” for “contained”, “test compound” for “test compound, 100 μL of (±)-[^3H]epibatidine and 100 μL of the Torpedo californica electroplax fraction (60-70 μg).”, “The filter” for “The filters”
Assays were carried out in duplicate, triplicates or quadruplicates.
as §2

In test [4] the target is T4, α7* nAChR (Rattus norvegicus, UniProt Q05941).
T4 construct: Frozen rat brains were thawed slowly before the preparation of the P2 rat brain membrane fraction; from tissue; host or cells: rat brain P2 membrane fraction
T4 sequence (Q05941 23-502): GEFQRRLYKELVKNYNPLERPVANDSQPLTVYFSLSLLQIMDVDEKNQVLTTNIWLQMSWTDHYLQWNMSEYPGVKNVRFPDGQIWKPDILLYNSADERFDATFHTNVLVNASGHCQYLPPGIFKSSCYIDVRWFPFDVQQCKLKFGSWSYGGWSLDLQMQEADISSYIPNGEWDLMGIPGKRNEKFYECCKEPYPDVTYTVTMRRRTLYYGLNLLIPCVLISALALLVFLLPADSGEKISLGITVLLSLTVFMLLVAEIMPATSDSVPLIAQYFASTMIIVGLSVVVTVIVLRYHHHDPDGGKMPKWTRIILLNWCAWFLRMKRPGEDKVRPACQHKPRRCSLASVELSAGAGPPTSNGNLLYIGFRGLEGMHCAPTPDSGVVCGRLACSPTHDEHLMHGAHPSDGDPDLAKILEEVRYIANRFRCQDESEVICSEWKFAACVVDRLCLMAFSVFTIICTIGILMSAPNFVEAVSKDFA
The test can be described thus: Competition assay using [3H]methyllycaconitine and rat brain P2-fraction. Type of test: binding. As to conditions: preliminary results; read-out: α7* [3H]MLA rat brain Ki. How it is done:
as §3, §4, §5
Competition Assay Using [^3H]Methyllycaconitine ([^3H]MLA) and Rat Brain P2-Fraction (α7*nAChR)
A dilution row of 6-9 concentrations of the test compound was prepared. Each assay sample, with a total volume of 250 μL contained 50 μL of the test compound, 100 μL of [^3H]MLA and 100 μL of the P2-membrane protein fraction (60-70 μg). Non-specific binding was determined in the presence of 1 μM MLA. The samples were homogenised and incubated for 120 min at 22° C. The incubation was terminated by vacuum filtration through glass fibre filters pre-soaked in 1% poly(ethyleneimine). The filters were rinsed three times with TRIS-buffer, punched out and transferred into 4 mL scintillation vials. The scintillation vials were filled with scintillation cocktail (2 mL) and the radioactivity was measured using a liquid scintillation counter.
Assays were carried out in duplicates, triplicates or quadruplicates.

T1 sequence (Q07263 22-495): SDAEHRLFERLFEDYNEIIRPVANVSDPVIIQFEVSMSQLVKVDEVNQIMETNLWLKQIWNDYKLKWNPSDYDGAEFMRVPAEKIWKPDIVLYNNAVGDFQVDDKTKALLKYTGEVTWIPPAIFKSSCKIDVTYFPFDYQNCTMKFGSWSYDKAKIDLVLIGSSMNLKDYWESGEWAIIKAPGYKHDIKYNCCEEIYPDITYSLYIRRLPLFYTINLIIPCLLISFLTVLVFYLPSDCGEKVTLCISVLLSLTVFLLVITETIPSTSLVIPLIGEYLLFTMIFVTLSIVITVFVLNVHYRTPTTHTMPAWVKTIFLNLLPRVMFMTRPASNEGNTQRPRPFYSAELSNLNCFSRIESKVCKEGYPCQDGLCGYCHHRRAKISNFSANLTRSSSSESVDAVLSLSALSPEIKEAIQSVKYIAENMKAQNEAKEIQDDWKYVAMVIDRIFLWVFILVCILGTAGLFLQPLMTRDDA
T1 sequence (Q8SPU6 20-496): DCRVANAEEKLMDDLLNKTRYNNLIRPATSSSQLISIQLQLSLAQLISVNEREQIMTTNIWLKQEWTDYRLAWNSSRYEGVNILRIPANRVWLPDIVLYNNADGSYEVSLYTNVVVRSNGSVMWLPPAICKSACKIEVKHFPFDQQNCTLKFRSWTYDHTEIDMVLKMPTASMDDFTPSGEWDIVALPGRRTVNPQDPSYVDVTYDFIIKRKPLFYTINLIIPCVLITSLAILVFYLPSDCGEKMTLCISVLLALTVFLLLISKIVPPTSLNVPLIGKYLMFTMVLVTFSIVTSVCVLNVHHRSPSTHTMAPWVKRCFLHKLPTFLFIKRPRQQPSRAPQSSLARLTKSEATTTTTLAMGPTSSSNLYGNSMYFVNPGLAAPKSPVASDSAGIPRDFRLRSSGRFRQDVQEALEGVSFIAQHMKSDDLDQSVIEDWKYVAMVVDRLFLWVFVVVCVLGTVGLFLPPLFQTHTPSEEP
T3 sequence (P12390 25-500): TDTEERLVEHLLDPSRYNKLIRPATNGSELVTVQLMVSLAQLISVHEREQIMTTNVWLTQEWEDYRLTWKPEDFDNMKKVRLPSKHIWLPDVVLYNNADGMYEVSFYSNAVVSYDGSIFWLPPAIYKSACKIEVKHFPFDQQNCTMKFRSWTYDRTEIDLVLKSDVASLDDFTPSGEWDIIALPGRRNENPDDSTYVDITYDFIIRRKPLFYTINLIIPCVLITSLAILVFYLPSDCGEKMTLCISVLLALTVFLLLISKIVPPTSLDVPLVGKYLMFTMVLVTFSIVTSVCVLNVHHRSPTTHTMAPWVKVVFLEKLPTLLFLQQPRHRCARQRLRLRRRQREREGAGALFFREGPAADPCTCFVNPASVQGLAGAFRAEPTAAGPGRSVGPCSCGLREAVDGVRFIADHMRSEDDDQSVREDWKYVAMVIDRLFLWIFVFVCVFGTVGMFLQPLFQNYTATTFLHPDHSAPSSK
T3 sequence (P09483 31-630): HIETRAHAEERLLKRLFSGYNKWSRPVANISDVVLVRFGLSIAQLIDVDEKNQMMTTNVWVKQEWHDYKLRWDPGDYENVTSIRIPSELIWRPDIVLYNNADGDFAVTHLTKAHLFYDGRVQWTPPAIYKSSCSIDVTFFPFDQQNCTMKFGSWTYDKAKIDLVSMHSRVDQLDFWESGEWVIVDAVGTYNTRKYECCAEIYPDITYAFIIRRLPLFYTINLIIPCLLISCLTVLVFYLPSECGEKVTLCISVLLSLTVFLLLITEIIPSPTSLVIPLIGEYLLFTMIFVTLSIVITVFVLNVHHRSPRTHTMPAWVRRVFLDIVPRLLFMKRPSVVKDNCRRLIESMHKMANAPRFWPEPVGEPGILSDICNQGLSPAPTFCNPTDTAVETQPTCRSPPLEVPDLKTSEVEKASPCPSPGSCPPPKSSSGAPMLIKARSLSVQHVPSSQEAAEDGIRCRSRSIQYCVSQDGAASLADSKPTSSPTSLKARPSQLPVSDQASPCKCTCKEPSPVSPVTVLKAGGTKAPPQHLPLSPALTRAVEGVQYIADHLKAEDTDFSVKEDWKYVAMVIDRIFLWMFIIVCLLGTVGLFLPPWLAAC

As a reminder, the Ki is the dissociation constant of the complex between target and ligand, obtained from inhibition or displacement. As to `O=c1c(-c2ccccc2)ccc2n1C[C@@H]1CNC[C@H]2C1` [93e, 3-Phenyl-cytisine], the Ki in test [1] and in test [2] was above 10 µM each time.

As for `O=c1c(-c2cccc([N+](=O)[O-])c2)ccc2n1C[C@@H]1CNC[C@H]2C1` [94e, 3-(3′-Nitro-phenyl)-cytisine], the Ki in test [3] was 0.023 µM; in test [4], above 10 µM; in test [1], above 2 µM; in test [2] it was above 10 µM.

Regarding `Cc1cccc(-c2ccc3n(c2=O)C[C@@H]2CNC[C@H]3C2)c1` [95e, 3-(3′-Methyl-phenyl)-cytisine], the Ki is 0.028 µM in test [3], above 10 µM in test [4], above 10 µM in test [1] and above 10 µM in test [2].

Turning to `O=c1c(-c2cccc(C(F)(F)F)c2)ccc2n1C[C@@H]1CNC[C@H]2C1` [96e, 3-(3′-Trifluoromethyl-phenyl)-cytisine], the Ki in test [3] is 0.0083 µM; in test [4] it was above 10 µM; in test [1], 3.7 µM; in test [2] it was above 10 µM.

`O=c1c(-c2cccc(OC(F)(F)F)c2)ccc2n1C[C@@H]1CNC[C@H]2C1` [97e, 3-(3′-Trifluoromethoxy-phenyl)-cytisine]: the inhibition constant (Ki) in test [3] is 0.067 µM; in test [4], above 10 µM; in test [1], above 10 µM; in test [2], above 10 µM.

As for `O=c1c(-c2cccc(Cl)c2)ccc2n1C[C@@H]1CNC[C@H]2C1` [98e, 3-(3′-Chloro-phenyl)-cytisine], the Ki in test [3] is 0.199 µM; in test [4], above 10 µM; in test [1] it was above 10 µM; in test [2], above 10 µM.

`O=c1c(-c2cccc(F)c2)ccc2n1C[C@@H]1CNC[C@H]2C1` [99e, 3-(3′-Fluoro-phenyl)-cytisine]: the Ki was 0.0057 µM in test [3], above 10 µM in test [4], 1.2 µM in test [1] and above 10 µM in test [2].

As to `O=c1c(-c2cccc(-c3ccccc3)c2)ccc2n1C[C@@H]1CNC[C@H]2C1` [100e, 3-(Biphenyl-3′-yl)-cytisine], the Ki in test [3] is 0.2 µM; in test [4] it was above 10 µM; in test [1] it was above 10 µM; in test [2] it was above 10 µM.

With `O=c1ccc(-c2ccccc2)c2n1C[C@@H]1CNC[C@H]2C1` [103e, 5-Phenyl-cytisine], the Ki in test [3] is 0.045 µM; in test [4] it was above 10 µM; in test [1], above 10 µM; in test [2], above 10 µM.

`O=c1ccc(-c2cccc([N+](=O)[O-])c2)c2n1C[C@@H]1CNC[C@H]2C1` [104e, 5-(3′-Nitro-phenyl)-cytisine]: the Ki in test [3] was 0.0037 µM; in test [4] it was above 10 µM; in test [1] it was 0.481 µM; in test [2], above 10 µM.

Turning to `Cc1cccc(-c2ccc(=O)n3c2[C@H]2CNC[C@H](C2)C3)c1` [105e, 5-(3′-Methyl-phenyl)-cytisine], the Ki is 0.024 µM in test [3], above 10 µM in test [4], above 10 µM in test [1] and above 10 µM in test [2].

As for `O=c1ccc(-c2cccc(C(F)(F)F)c2)c2n1C[C@@H]1CNC[C@H]2C1` [106e, 5-(3′-Trifluoromethyl-phenyl)-cytisine], the Ki in test [3] was 0.055 µM; in test [4], above 10 µM; in test [1] it was above 10 µM; in test [2], above 10 µM.

For `O=c1ccc(-c2cccc(OC(F)(F)F)c2)c2n1C[C@@H]1CNC[C@H]2C1` [107e, 5-(3′-Trifluoromethoxy-phenyl)-cytisine], the Ki was 0.023 µM in test [3], above 10 µM in test [4], above 10 µM in test [1] and above 10 µM in test [2].

`O=c1ccc(-c2cccc(Cl)c2)c2n1C[C@@H]1CNC[C@H]2C1` [108e, 5-(3′-Chloro-phenyl)-cytisine]: the Ki in test [3] is 0.17 µM; in test [4], above 10 µM; in test [1] it was above 10 µM; in test [2] it was above 10 µM.

As to `O=c1ccc(-c2cccc(F)c2)c2n1C[C@@H]1CNC[C@H]2C1` [109e, 5-(3′-Fluoro-phenyl)-cytisine], the Ki was 0.3 µM in test [3], above 10 µM in test [4], above 2 µM in test [1] and above 10 µM in test [2].

For the compound `O=c1ccc(-c2cccc(-c3ccccc3)c2)c2n1C[C@@H]1CNC[C@H]2C1` [110e, 5-(Biphenyl-3′-yl)-cytisine], the Ki is 0.19 µM in test [3], above 10 µM in test [4], above 10 µM in test [1] and above 10 µM in test [2].

`O=c1c(-c2ccc3[nH]ccc3c2)ccc2n1C[C@@H]1CNC[C@H]2C1` [117e, 3-(1H-Indol-5′-yl)-cytisine]: the Ki is 0.853 µM in test [3], above 10 µM in test [4], above 10 µM in test [1] and above 10 µM in test [2].

On to `O=c1c(-c2ccc3c(c2)OCO3)ccc2n1C[C@@H]1CNC[C@H]2C1` [118e, 3-(3′,4′-Methylenedioxy-phenyl)-cytisine], for which the Ki in test [1] and in test [2] was above 10 µM throughout.

`O=c1c(-c2cccnc2)ccc2n1CC1CNCC2C1` (stereo not drawn) [119e, 3-(Pyridin-3′-yl)-cytisine]: the Ki in test [4] is above 10 µM.

Regarding `O=c1c(-c2ccncc2)ccc2n1C[C@@H]1CNC[C@H]2C1` [120e, 3-(Pyridin-4′-yl)-cytisine], in test [2], the Ki is above 10 µM.

Regarding `O=c1c(-c2cccc3cccnc23)ccc2n1C[C@@H]1CNC[C@H]2C1` [121e, 3-Quinolin-8′-yl-cytisine], the Ki in test [3] was 0.095 µM; in test [4] it was above 10 µM; in test [1], above 10 µM; in test [2] it was above 10 µM.

As for `Cn1cc(-c2ccc3n(c2=O)CC2CNCC3C2)cn1` (stereo not drawn) [122e, 3-(1-Methyl-1H-pyrazol-4′-yl)-cytisine], the Ki was 0.000177 µM in test [3], above 10 µM in test [4], 0.033 µM in test [1] and above 5 µM in test [2].

Consider `O=c1ccc(-c2ccc3[nH]ccc3c2)c2n1C[C@@H]1CNC[C@H]2C1` [123e, (1H-Indol-5′-yl)-cytisine], for which the Ki was 0.0204 µM in test [3], above 10 µM in test [4], above 10 µM in test [1] and above 10 µM in test [2].

Consider `O=c1c(-c2cccnc2)ccc2n1CC1CNCC2C1` (stereo not drawn) [drawing 100], for which the values for the Ki in test [3] and in test [2] were 0.00091 µM and above 10 µM, respectively.
